According to patent US11753445B2, “Therapeutic peptides” (COHBAR, INC., priority 2016, dated 2023):
Peptide text beside a SMILES is read from it.

Test system: 3T3-L1 Adipocytes
Assay: Free fatty acid levels in cultured mouse 3T3-L1 adipocytes, isoproterenol stimulated (Example 2)
Format: cell-based
Details: test peptides 25 μM; isoproterenol 1 nM
Method in brief: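 Release of free fatty acids, read at 540 nm, was stimulated with 1 nM isoproterenol for 3 h in mouse 3T3-L1 adipocytes (12–17 days of differentiation). Cells were pre-exposed to 25 μM peptide for 18–20 h plus 1 h, with peptide kept in during stimulation. Values are background-subtracted and normalised to isoproterenol alone.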

Compound | Free Fatty Acid Levels in 3T3-L1 Adipocytes Expressed as a Percent of Isoproterenol Control: Percent of Control Value
CC[C@H](C)[C@H](NC(=O)[C@H](Cc1ccc(O)cc1)NC(=O)CNC(=O)[C@H](CCSC)NC(=O)[C@H](CCC(=O)O)NC(=O)[C@H](CCC(N)=O)NC(=O)[C@H](Cc1c[nH]c2ccccc12)NC(=O)[C@H](CCCNC(=N)N)NC(=O)[C@@H](N)CCSC)C(=O)N[C@@H](Cc1ccccc1)C(=O)N[C@@H](Cc1ccc(O)cc1)C(=O)N1CCC[C@H]1C(=O)N[C@@H](CCCNC(=N)N)C(=O)N[C@@H](CCCCN)C(=O)N[C@H](C)C(=O)N[C@@H](CCCNC(=N)N)C(=O)O [compound 150] (HELM PEPTIDE1{M.R.W.Q.E.M.G.Y.I.F.Y.P.R.K.[dA].R}$$$$V2.0) | 53.9%
CSCC[C@H](NC(=O)[C@H](CCC(=O)O)NC(=O)[C@H](CCC(N)=O)NC(=O)[C@H](Cc1c[nH]c2ccccc12)NC(=O)[C@H](CCCNC(=N)N)NC(=O)[C@@H](N)CCSC)C(=O)NCC(=O)N[C@@H](Cc1ccc(O)cc1)C(=O)N[C@H](C)C(=O)N[C@@H](Cc1ccccc1)C(=O)N[C@@H](Cc1ccc(O)cc1)C(=O)N1CCC[C@H]1C(=O)N[C@@H](CCCNC(=N)N)C(=O)N[C@@H](CCCCN)C(=O)N[C@@H](CC(C)C)C(=O)N[C@@H](CCCNC(=N)N)C(=O)O [compound 144] (HELM PEPTIDE1{M.R.W.Q.E.M.G.Y.[dA].F.Y.P.R.K.L.R}$$$$V2.0) | 57.0%
CC[C@H](C)[C@@H]1NC(=O)[C@H](Cc2ccc(O)cc2)NC(=O)CNC(=O)[C@H](CCSC)NC(=O)[C@@H](NC(=O)[C@H](CCC(N)=O)NC(=O)[C@H](Cc2c[nH]c3ccccc23)NC(=O)[C@H](CCCNC(=N)N)NC(=O)[C@H](CCSC)NC(C)=O)CCC(=O)NCCCC[C@@H](C(=O)N[C@@H](CC(C)C)C(=O)N[C@@H](CCCNC(=N)N)C(N)=O)NC(=O)[C@H](CCCNC(=N)N)NC(=O)[C@@H]2CCCN2C(=O)[C@H](Cc2ccc(O)cc2)NC(=O)[C@H](Cc2ccccc2)NC1=O [compound 227] (HELM PEPTIDE1{[ac].M.R.W.Q.E.M.G.Y.I.F.Y.P.R.K.L.R.[am]}$PEPTIDE1,PEPTIDE1,6:R3-15:R3$$$V2.0) | 24.5%
CC[C@H](C)[C@H](NC(=O)[C@H](Cc1ccc(O)cc1)NC(=O)CNC(=O)[C@H](CCC(=O)O)NC(=O)[C@H](CCC(=O)O)NC(=O)[C@H](CCC(N)=O)NC(=O)[C@H](Cc1c[nH]c2ccccc12)NC(=O)[C@H](CCCNC(=N)N)NC(=O)[C@@H](C)N)C(=O)N[C@@H](C)C(=O)N[C@@H](Cc1ccc(O)cc1)C(=O)N1CCC[C@H]1C(=O)N[C@@H](CCCNC(=N)N)C(=O)O [compound 238] (HELM PEPTIDE1{[dA].R.W.Q.E.E.G.Y.I.A.Y.P.R}$$$$V2.0) | 52.9%
CC[C@H](C)[C@H](NC(=O)[C@H](Cc1ccc(O)cc1)NC(=O)CNC(=O)[C@H](CCSC)NC(=O)[C@H](CCC(=O)O)NC(=O)[C@H](CCC(N)=O)NC(=O)[C@H](Cc1c[nH]c2ccccc12)NC(=O)C(C)(C)NC(=O)[C@H](CCSC)NC(C)=O)C(=O)N[C@@H](Cc1ccccc1)C(=O)N[C@@H](Cc1ccc(O)cc1)C(=O)N1CCC[C@H]1C(=O)N[C@@H](CCCNC(=N)N)C(=O)N[C@@H](CCCCN)C(=O)N[C@@H](CC(C)C)C(=O)N[C@@H](CCCNC(=N)N)C(=O)O [compound 120] (HELM PEPTIDE1{[ac].M.[Aib].W.Q.E.M.G.Y.I.F.Y.P.R.K.L.R}$$$$V2.0) | 86.0%
CC[C@H](C)[C@H](NC(=O)[C@@H](C)NC(=O)CNC(=O)[C@H](CCSC)NC(=O)[C@H](CCC(=O)O)NC(=O)[C@H](CCC(N)=O)NC(=O)[C@H](Cc1c[nH]c2ccccc12)NC(=O)[C@H](CCCNC(=N)N)NC(=O)[C@H](CCSC)NC(C)=O)C(=O)N[C@@H](Cc1ccccc1)C(=O)N[C@@H](Cc1ccc(O)cc1)C(=O)N1CCC[C@H]1C(=O)N[C@@H](CCCNC(=N)N)C(=O)N[C@@H](CCCCN)C(=O)N[C@@H](CC(C)C)C(=O)N[C@@H](CCCNC(=N)N)C(N)=O [compound 159] (HELM PEPTIDE1{[ac].M.R.W.Q.E.M.G.[dA].I.F.Y.P.R.K.L.R.[am]}$$$$V2.0) | 87.4%
CSCC[C@H](NC(C)=O)C(=O)N[C@@H](CCCNC(=N)N)C(=O)N[C@@H](Cc1c[nH]c2ccccc12)C(=O)N[C@@H](CCC(N)=O)C(=O)N[C@@H](CCC(=O)O)C(=O)N[C@@H](CCSC)C(=O)NCC(=O)N[C@@H](Cc1ccc(O)cc1)C(=O)N[C@H](C)C(=O)N[C@@H](Cc1ccccc1)C(=O)N[C@@H](Cc1ccc(O)cc1)C(=O)N1CCC[C@H]1C(=O)N[C@@H](CCCNC(=N)N)C(=O)N[C@@H](CCCCN)C(=O)N[C@@H](CC(C)C)C(=O)N[C@@H](CCCNC(=N)N)C(N)=O [compound 160] (HELM PEPTIDE1{[ac].M.R.W.Q.E.M.G.Y.[dA].F.Y.P.R.K.L.R.[am]}$$$$V2.0) | 87.1%
CC[C@H](C)[C@H](NC(=O)[C@H](Cc1ccc(O)cc1)NC(=O)CNC(=O)[C@H](CCSC)NC(=O)[C@@H](C)NC(=O)[C@H](CCC(N)=O)NC(=O)[C@H](Cc1c[nH]c2ccccc12)NC(=O)[C@H](CCCNC(=N)N)NC(=O)[C@H](CCSC)NC(C)=O)C(=O)N[C@@H](Cc1ccccc1)C(=O)N[C@@H](Cc1ccc(O)cc1)C(=O)N1CCC[C@H]1C(=O)N[C@@H](CCCNC(=N)N)C(=O)N[C@@H](CCCCN)C(=O)N[C@@H](CC(C)C)C(=O)N[C@@H](CCCNC(=N)N)C(N)=O [compound 156] (HELM PEPTIDE1{[ac].M.R.W.Q.[dA].M.G.Y.I.F.Y.P.R.K.L.R.[am]}$$$$V2.0) | 94.7%
Ac-LRWQEMGYIFYPRKRL-NH2 [compound 111] | 106.0%
CC[C@H](C)[C@H](NC(=O)[C@H](Cc1ccc(O)cc1)NC(=O)CNC(=O)[C@H](CCSC)NC(=O)[C@H](CCC(=O)O)NC(=O)[C@H](CCC(N)=O)NC(=O)[C@H](Cc1c[nH]c2ccccc12)NC(=O)[C@H](CCCNC(=N)N)NC(=O)[C@@H](N)CCSC)C(=O)N[C@@H](Cc1ccccc1)C(=O)N[C@@H](Cc1ccc(O)cc1)C(=O)N1CCC[C@H]1C(=O)N[C@@H](CCCNC(=N)N)C(=O)N[C@@H](CCCCN)C(=O)NC(CC)(CC)C(=O)N[C@@H](CCCNC(=N)N)C(=O)O [compound 198] (HELM PEPTIDE1{M.R.W.Q.E.M.G.Y.I.F.Y.P.R.K.[CCC(CC)(N[*:1])C(=O)[*:2]].R}$$$$V2.0) | 69.2%
CC[C@H](C)[C@H](NC(=O)[C@H](Cc1ccc(O)cc1)NC(=O)CNC(=O)[C@H](CCSC)NC(=O)[C@H](CCC(=O)O)NC(=O)[C@H](CCC(N)=O)NC(=O)[C@H](Cc1c[nH]c2ccccc12)NC(=O)[C@H](CCCNC(=N)N)NC(=O)[C@H](CCSC)NC(C)=O)C(=O)N[C@H](C)C(=O)N[C@@H](Cc1ccc(O)cc1)C(=O)N1CCC[C@H]1C(=O)N[C@@H](CCCNC(=N)N)C(=O)N[C@@H](CCCCN)C(=O)N[C@@H](CC(C)C)C(=O)N[C@@H](CCCNC(=N)N)C(N)=O [compound 161] (HELM PEPTIDE1{[ac].M.R.W.Q.E.M.G.Y.I.[dA].Y.P.R.K.L.R.[am]}$$$$V2.0) | 83.7%
